Here are results for four compounds from BindingDB's records for PubMed 2968449 (Squibb Institute For Medical Research, 1988).

Structures are written as SMILES. pKi: −log10 of the molar value. Values joined by “and” are separate entries in the source; they are usually repeats but may differ in a detail not shown here. Identical values can stand only once.

The target of this experiment is T1, Thromboxane A2 receptor (Homo sapiens, UniProt P21731).
T1 sequence (P21731 whole entry): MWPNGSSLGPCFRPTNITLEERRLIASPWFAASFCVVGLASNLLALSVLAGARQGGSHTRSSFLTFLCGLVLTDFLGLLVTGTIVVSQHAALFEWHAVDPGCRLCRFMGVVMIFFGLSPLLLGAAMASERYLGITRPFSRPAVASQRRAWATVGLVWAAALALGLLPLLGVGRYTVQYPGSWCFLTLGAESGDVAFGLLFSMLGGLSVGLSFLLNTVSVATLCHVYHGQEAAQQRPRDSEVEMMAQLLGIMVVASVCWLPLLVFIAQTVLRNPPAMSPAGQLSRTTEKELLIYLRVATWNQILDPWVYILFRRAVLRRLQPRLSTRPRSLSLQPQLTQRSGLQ
Take `CC(c1ccccc1)C(O)C=CC1C2CCC(O2)C1CC=CCCCC(=O)O` (centres undefined) [NSC_3036123]: the pKi is 7.14 and 7.50. With `CCCCCCC(=O)NCC(=O)NCC1C2CCC(O2)C1CC=CCCCC(=O)O` (centres undefined) [CAS_119571], the negative-log Ki (pKi) is 7.30 and 7.55. With `CCCCC[C@H](O)/C=C/C1[C@@H](C/C=C\CCCC(=O)O)[C@H]2CO[C@@H]1C2` (some centres undefined) [U46619], the negative-log Ki (pKi) is 7.73 and 8.44. The value for `CCCCCC(O)C=CC1C2COC(C2)C1CC=CCCCC(=O)O` (centres undefined) [NSC_114865] was 8.15 and 8.36.

For orientation: pKi means the Ki on a negative log10 scale, so that one unit is a factor of ten. High values mean a low Ki, low ones a high Ki.
